The assay has as its target T1, CLK3 (Homo sapiens, UniProt P49761).
T1 construct: purchased Thermo Fisher Scientific (Life Technologies) SelectScreen
The experiment in a line: SelectScreen Z'LYTE. It is filed as biochemical. The procedure, abridged:
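NU5455 was profiled across the SelectScreen Broad panel of kinase activity and binding assays. Z'LYTE reactions such as CSF1R ran at apparent Km ATP, while the Adapta CAMK1 assay used ATP listed as 10. Values are given as percent.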

What is called inhibition is the change of the read-out against control, counted positive when it falls.

T1 sequence (P49761 whole entry): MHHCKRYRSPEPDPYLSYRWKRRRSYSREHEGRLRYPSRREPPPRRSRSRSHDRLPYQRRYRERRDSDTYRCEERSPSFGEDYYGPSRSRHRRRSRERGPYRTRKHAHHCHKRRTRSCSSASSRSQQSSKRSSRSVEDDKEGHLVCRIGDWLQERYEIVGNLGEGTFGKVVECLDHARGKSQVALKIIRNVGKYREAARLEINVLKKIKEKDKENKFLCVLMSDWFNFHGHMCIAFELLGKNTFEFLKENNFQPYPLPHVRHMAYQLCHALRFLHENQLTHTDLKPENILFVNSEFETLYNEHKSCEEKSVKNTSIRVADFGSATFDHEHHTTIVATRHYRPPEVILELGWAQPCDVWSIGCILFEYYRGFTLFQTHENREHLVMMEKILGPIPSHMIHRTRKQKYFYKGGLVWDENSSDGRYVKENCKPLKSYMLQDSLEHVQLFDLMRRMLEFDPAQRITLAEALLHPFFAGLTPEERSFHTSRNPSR

Turning to `CN(C(=O)CN1CCOCC1)c1ccc2sc3c(-c4cccc5c(=O)cc(N6CC7CCC(C6)O7)oc45)cccc3c2c1` [NU5455], the inhibition at 1 µM is -0.5%.

For the origin of these results see PMC6934184, “Selective DNA-PKcs inhibition extends the therapeutic index of localized radiotherapy and chemotherapy” (The Journal of Clinical Investigation, 2019).
